According to ChEMBL document CHEMBL1149789, “SAR and QSAR studies: modelling of new DAPY derivatives” (Eur J Med Chem, 2008):

Experiments:
[1] = test system: Human immunodeficiency virus; experiment: Inhibition of HIV reverse transcriptase
[2] = Partition coefficient, log P of the compound; type: physicochemical; conditions: octanol/water

Row | SMILES | EC50 [1] | logP ([2]; read-out: logP) | logP [2]
1 | Cc1cc(C)c(Oc2ccnc(Nc3ccc(C#N)cc3)n2)c(C)c1 | 2.9 nM | 2.07 | 
2 | N#Cc1ccc(Nc2nccc(Nc3c(Cl)cc(Cl)cc3Cl)n2)cc1 | 0.7 nM | 0.77 | 
3 | Cc1cnc(Nc2ccc(C#N)cc2)nc1Nc1c(C)cc(C#N)cc1C | 0.8 nM | 1.74 | 
4 | Cc1cc(Br)cc(C)c1Sc1ccnc(Nc2ccc(C#N)cc2)n1 | 5.7 nM | 2.31 | 
5 | Cc1cc(C#N)cc(C)c1Oc1nc(Nc2ccc(C#N)cc2)nc(N)c1Br [ETRAVIRINE] | 1.4 nM | 1.82 | 
6 | C=Cc1cnc(Nc2ccc(C#N)cc2)nc1Nc1c(C)cc(C#N)cc1C | 2.5 nM | 2.36 | 
7 | Cc1cc(C)c(Nc2nc(Nc3ccc(C#N)cc3)ncc2C)c(C)c1 | 1.7 nM | 2.17 | 
8 | CC(=O)Nc1cnc(Nc2ccc(C#N)cc2)nc1Oc1c(C)cc(C#N)cc1C |  | -0.12 | 
9 | Cc1cc(C#N)cc(C)c1Oc1nc(Nc2ccc(C#N)cc2)ncc1N | 1 nM | 0.05 | 
10 | Cc1cc(C#N)cc(C)c1Oc1nc(Nc2ccc(C#N)cc2)ncc1Cl | 1.4 nM | 1.54 | 
11 | Cc1cc(C#N)cc(C)c1Nc1nc(Nc2ccc(C#N)cc2)ncc1Cl | 1.2 nM | 1.37 | 
12 | Cc1cc(Br)cc(C)c1Nc1ccnc(Nc2ccc(C#N)cc2)n1 | 2.3 nM | 1.79 | 
13 | Cc1cc(C)c(Nc2nc(Nc3ccc(C#N)cc3)ncc2Br)c(C)c1 | 5.5 nM | 2.07 | 
14 | Cc1cc(C)c(Nc2nc(Nc3ccc(C#N)cc3)ncc2C#N)c(C)c1 | 1 nM | 1.74 | 
15 | Cc1cc(C#N)cc(C)c1Nc1nc(Nc2ccc(C#N)cc2)ncc1C#N | 0.5 nM | 1.31 | 
16 | Cc1cc(Br)cc(C)c1Oc1ccnc(Nc2ccc(C#N)cc2)n1 | 2.9 nM | 1.97 | 

Row | SMILES | EC50 [1] | logP ([2]; read-out: logP) | logP [2]
17 | Cc1cc(C)c(Nc2nc(Nc3ccc(C#N)cc3)ncc2Cl)c(C)c1 | 2.7 nM | 1.8 | 
18 | Cc1cc(C#N)cc(C)c1Nc1nc(Nc2ccc(C#N)cc2)ncc1Br | 0.4 nM | 1.64 | 
19 | Cc1cc(Cl)cc(Cl)c1Nc1ccnc(Nc2ccc(C#N)cc2)n1 | 1 nM | 1.14 | 
20 | Cc1cc(Cl)cc(C)c1Nc1ccnc(Nc2ccc(C#N)cc2)n1 | 2.1 nM | 1.52 | 
21 | C#Cc1cc(C)c(Oc2ccnc(Nc3ccc(C#N)cc3)n2)c(C)c1 | 5.5 nM | 1.79 | 
22 | N#Cc1ccc(Nc2nccc(Nc3c(Br)cc(F)cc3Br)n2)cc1 | 0.6 nM | 0.94 | 
23 | C#Cc1cnc(Nc2ccc(C#N)cc2)nc1Nc1c(C)cc(C)cc1C |  | 1.89 | 
24 | Cc1cc(C)c(Sc2ccnc(Nc3ccc(C#N)cc3)n2)c(C)c1 | 3.6 nM | 2.42 | 
25 | Cc1cccc(C)c1Nc1ccnc(Nc2ccc(C#N)cc2)n1 | 0.7 nM | 1.74 | 
26 | Cc1cc(C)c(Nc2ccnc(Nc3ccc(C#N)cc3)n2)c(C)c1 [DAPIVIRINE] | 1 nM | 1.9 | 
27 | Cc1cc(C#N)cc(C)c1Oc1nc(Nc2ccc(C#N)cc2)ncc1[N+](=O)[O-] | 18 nM |  | -0.98
28 | Cc1cc(C#N)cc(C)c1Nc1ccnc(Nc2ccc(C#N)cc2)n1 | 0.4 nM | 1.47 | 
29 | Cc1cc(C#N)cc(C)c1Oc1ccnc(Nc2ccc(C#N)cc2)n1 | 1.1 nM | 1.64 | 
30 | Cc1cc(Br)c(Nc2ccnc(Nc3ccc(C#N)cc3)n2)c(Br)c1 | 0.7 nM | 1.69 | 
31 | Cc1cc(C#N)cc(C)c1Oc1nc(Nc2ccc(C#N)cc2)ncc1Br | 1.4 nM | 1.82 | 
